{"source": "patent US12599597B2", "about": "“Substituted N-benzhydrylacetamide inhibitors of jumanji domain histone demethylases for the treatment of cancer” (University of Kentucky Research Foundation, priority 2020, dated 2026)", "assay_in_all_cases": "Histone demethylase assay, purified enzyme panel", "type_in_all_cases": "biochemical", "settings_in_all_cases": "58B1, 10 μM", "key": {"Jarid1B (KDM5B)": {"target": "Jarid1B (KDM5B) (Homo sapiens, UniProt Q9UGL1)", "sequence (Q9UGL1 whole entry)": "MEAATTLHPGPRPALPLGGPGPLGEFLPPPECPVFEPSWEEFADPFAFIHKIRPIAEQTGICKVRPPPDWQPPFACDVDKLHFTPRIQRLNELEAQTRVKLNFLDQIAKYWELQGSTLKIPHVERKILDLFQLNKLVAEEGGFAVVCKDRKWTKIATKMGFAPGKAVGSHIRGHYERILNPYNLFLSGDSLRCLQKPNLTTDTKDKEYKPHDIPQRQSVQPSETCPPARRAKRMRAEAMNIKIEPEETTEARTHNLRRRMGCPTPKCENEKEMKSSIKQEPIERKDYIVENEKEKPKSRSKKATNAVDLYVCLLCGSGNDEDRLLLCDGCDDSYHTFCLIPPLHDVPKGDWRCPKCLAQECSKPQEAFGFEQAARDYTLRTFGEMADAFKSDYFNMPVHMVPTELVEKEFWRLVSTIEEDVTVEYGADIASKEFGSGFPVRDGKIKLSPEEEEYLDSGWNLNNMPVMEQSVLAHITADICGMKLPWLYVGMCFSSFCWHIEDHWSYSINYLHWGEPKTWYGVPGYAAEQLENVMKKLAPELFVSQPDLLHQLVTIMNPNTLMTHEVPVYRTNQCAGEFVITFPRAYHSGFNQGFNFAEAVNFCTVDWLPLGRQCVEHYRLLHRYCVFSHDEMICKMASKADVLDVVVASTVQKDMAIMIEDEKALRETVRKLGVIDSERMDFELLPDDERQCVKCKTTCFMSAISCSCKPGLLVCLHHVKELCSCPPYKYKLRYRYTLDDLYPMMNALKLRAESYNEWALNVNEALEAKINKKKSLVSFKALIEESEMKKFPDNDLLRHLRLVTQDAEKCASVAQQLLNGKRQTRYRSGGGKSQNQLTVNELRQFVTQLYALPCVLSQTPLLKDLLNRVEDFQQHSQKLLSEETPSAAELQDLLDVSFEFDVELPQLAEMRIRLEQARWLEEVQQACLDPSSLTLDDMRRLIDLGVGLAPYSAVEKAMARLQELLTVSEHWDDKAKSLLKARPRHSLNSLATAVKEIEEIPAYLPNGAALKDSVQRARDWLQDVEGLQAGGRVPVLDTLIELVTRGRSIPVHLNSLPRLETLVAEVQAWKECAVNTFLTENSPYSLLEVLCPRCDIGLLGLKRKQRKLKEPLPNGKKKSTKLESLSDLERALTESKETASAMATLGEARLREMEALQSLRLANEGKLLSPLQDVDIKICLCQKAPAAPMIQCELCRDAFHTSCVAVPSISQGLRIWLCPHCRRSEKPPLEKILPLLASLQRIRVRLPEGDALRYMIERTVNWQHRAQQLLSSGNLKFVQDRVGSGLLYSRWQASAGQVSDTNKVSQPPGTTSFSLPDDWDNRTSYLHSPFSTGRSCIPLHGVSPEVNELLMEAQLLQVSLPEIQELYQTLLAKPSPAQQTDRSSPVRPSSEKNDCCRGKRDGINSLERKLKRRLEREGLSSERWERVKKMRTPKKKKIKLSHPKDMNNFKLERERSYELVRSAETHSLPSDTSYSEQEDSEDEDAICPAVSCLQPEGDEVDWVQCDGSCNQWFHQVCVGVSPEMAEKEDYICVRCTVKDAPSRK", "excerpt": "(§1) Histone Demethylase Assay\n(§2) To further examine the effects of 58B1 on histone demethylase, we screened a panel of purified histone demethylases was screened."}, "JMJD2A (KDM4A)": {"target": "T1, JMJD2A (KDM4A) (Homo sapiens, UniProt O75164)", "T1 sequence (O75164 1-1064)": "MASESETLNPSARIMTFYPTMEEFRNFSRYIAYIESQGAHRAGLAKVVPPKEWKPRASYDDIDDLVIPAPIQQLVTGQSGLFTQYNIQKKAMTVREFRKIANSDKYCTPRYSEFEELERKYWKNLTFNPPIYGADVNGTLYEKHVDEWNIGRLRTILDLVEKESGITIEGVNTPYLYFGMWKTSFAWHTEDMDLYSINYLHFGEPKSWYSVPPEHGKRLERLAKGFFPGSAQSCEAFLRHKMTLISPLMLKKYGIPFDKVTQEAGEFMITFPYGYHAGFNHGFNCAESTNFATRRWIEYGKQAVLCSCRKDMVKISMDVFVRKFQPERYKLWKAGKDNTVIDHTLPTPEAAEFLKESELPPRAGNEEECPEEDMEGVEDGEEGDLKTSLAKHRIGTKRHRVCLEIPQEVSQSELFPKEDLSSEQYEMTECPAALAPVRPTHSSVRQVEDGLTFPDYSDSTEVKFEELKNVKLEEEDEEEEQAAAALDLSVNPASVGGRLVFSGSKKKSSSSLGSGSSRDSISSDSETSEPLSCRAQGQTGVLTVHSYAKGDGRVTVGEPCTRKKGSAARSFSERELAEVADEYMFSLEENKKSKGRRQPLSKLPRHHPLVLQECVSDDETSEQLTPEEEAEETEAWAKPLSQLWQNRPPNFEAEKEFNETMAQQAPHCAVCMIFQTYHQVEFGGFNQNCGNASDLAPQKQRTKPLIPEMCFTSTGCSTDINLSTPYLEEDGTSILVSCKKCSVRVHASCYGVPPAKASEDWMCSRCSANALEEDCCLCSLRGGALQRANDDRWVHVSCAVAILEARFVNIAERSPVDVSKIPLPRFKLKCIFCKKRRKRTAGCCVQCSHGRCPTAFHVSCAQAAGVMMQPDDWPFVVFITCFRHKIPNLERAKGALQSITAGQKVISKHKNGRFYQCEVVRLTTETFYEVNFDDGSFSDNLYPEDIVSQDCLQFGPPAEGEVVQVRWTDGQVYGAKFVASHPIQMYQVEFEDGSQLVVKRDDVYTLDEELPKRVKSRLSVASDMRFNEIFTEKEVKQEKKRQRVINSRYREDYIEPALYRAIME", "excerpt": "as §1, §2"}, "UTX (KDM6A)": {"target": "UTX (KDM6A) (Homo sapiens, UniProt O15550)", "sequence (O15550 whole entry)": "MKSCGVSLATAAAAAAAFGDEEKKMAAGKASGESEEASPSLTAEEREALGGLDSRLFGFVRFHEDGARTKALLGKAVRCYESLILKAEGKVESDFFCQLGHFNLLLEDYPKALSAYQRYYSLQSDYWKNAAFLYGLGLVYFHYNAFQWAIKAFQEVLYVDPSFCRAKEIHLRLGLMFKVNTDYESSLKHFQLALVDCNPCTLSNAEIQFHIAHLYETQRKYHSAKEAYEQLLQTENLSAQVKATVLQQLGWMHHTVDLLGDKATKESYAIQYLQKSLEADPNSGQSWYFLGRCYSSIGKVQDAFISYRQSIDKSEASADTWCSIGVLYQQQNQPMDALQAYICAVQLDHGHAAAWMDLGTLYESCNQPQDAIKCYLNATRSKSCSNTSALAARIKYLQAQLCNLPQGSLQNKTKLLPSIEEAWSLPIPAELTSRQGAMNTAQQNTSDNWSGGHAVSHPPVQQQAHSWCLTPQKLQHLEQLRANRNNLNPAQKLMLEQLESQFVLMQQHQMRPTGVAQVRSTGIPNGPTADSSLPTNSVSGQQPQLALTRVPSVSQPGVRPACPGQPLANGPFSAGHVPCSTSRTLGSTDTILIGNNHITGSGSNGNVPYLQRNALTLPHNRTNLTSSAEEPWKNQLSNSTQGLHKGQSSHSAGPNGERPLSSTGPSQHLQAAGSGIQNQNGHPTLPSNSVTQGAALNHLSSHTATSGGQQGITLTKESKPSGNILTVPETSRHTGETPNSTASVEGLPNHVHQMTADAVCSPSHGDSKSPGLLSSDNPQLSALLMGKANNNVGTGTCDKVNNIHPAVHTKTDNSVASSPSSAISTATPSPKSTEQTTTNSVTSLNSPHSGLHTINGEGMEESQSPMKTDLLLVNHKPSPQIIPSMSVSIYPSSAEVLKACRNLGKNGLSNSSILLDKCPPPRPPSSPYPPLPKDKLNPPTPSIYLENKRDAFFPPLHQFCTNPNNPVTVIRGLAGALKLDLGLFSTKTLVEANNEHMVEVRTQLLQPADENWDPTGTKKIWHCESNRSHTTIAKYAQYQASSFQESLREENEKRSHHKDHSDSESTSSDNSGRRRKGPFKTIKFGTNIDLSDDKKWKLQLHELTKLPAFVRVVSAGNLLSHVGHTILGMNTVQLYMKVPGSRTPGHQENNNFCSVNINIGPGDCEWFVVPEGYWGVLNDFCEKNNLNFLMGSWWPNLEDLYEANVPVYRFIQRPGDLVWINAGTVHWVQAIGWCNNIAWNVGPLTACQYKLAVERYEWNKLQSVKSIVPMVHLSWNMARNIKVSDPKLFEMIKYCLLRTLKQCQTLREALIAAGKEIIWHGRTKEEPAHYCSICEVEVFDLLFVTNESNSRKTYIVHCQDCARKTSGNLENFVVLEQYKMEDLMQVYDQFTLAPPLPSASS", "excerpt": "as §1, §2"}, "JMJD3 (KDM6B)": {"target": "JMJD3 (KDM6B) (Homo sapiens, UniProt O15054)", "sequence (O15054 whole entry)": "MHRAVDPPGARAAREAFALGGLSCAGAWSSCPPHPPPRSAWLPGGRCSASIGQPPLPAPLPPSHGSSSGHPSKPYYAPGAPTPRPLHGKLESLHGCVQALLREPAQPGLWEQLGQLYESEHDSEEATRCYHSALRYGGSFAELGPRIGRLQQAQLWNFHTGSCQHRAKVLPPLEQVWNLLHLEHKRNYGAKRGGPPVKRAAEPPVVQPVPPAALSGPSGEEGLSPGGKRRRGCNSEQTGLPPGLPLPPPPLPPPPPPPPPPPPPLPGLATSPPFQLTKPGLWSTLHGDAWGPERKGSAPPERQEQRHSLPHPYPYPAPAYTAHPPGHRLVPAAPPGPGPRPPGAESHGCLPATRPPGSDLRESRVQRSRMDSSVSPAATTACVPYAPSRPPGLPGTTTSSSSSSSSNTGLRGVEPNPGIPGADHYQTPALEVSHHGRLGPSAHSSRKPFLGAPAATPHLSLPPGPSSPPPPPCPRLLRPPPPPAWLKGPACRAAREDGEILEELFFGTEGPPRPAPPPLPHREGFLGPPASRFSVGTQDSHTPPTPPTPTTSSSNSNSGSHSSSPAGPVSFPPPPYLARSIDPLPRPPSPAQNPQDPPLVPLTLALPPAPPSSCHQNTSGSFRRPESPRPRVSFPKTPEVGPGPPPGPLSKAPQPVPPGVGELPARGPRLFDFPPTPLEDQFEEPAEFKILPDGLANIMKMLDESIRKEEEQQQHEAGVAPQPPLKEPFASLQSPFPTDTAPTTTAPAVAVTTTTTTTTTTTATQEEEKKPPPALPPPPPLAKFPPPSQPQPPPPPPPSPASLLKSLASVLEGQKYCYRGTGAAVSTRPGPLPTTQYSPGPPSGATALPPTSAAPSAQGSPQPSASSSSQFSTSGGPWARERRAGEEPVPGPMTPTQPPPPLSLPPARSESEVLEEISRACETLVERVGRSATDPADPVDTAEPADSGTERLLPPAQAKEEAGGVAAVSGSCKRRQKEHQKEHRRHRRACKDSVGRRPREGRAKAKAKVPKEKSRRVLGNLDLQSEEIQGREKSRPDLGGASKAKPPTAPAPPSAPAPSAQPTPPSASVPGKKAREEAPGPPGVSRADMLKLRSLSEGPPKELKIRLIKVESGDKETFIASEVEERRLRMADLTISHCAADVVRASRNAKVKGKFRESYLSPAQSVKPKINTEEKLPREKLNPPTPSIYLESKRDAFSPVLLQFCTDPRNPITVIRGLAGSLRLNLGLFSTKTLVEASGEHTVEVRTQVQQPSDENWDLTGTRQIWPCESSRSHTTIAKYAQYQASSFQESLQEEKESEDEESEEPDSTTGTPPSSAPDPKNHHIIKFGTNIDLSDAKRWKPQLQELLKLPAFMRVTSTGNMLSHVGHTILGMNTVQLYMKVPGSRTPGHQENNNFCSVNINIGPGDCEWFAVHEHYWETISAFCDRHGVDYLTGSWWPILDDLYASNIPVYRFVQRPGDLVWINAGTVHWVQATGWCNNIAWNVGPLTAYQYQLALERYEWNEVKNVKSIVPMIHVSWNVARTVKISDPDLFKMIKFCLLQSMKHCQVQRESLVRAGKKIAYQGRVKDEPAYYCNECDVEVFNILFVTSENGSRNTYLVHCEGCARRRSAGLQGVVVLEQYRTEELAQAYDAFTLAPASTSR", "excerpt": "as §1, §2"}, "LSD1 (KDM1A)": {"target": "LSD1 (KDM1A) (Homo sapiens, UniProt O60341)", "excerpt": "as §1, §2"}, "FBXL10 (KDM2B)": {"target": "T2, FBXL10 (KDM2B) (Homo sapiens, UniProt Q8NHM5)", "T2 sequence (Q8NHM5 1-1336)": "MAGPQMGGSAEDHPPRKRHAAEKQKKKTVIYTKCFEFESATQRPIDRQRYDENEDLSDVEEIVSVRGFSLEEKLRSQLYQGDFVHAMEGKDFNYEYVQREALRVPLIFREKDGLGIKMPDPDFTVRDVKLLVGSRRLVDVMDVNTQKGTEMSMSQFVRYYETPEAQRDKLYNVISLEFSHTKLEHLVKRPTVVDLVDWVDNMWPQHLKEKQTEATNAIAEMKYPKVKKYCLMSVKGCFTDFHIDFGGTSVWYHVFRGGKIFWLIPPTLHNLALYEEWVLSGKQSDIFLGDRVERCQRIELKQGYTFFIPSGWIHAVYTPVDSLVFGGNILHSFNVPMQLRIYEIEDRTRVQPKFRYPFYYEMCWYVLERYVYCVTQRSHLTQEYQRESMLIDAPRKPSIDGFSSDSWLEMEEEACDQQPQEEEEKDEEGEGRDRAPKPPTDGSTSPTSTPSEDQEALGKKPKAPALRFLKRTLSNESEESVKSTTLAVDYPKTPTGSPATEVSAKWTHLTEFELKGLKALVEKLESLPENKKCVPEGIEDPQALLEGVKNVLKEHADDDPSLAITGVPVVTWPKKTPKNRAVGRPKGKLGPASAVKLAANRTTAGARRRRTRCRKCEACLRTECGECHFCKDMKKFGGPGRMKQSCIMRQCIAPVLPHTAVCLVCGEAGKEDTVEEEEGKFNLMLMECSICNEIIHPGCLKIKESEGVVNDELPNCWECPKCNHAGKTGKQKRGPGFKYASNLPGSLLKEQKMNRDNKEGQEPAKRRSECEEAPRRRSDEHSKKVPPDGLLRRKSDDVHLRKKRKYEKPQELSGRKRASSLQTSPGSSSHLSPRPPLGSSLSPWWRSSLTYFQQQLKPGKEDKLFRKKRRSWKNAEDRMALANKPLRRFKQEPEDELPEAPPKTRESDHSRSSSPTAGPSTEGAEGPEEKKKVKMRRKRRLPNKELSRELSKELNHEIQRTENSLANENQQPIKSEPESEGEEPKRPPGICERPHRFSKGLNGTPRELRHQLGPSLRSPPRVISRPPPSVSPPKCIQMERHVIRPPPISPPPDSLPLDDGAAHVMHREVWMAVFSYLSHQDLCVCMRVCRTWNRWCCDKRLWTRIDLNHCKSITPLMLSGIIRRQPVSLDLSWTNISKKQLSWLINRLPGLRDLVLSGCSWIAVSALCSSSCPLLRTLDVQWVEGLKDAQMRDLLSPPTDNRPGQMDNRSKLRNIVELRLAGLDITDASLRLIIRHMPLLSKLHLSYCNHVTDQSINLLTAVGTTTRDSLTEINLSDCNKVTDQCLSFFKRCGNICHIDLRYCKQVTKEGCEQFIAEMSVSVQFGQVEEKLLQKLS", "excerpt": "as §1, §2"}}}
{"smiles": "CCCC(=O)NC(c1ccc(N(CC)CC)cc1)c1cc(Cl)c2cccnc2c1O", "note": "(stereo not drawn) [58B1]", "values": [{"measurement": "inhibition at 10 µM", "setting": "Jarid1B (KDM5B)", "value": 95, "unit": "%"}, {"measurement": "inhibition at 10 µM", "setting": "JMJD2A (KDM4A)", "value": 64, "unit": "%"}, {"measurement": "inhibition at 10 µM", "setting": "UTX (KDM6A)", "value": 100, "unit": "%"}, {"measurement": "inhibition at 10 µM", "setting": "JMJD3 (KDM6B)", "value": 94, "unit": "%"}, {"measurement": "inhibition at 10 µM", "setting": "LSD1 (KDM1A)", "value": 32, "unit": "%"}, {"measurement": "inhibition at 10 µM", "setting": "FBXL10 (KDM2B)", "value": 30, "unit": "%"}]}
